In patent US9861606B2, “Therapeutic for treating inflammatory lung disorders” (University College Cardiff Consultants Limited, priority 2012, dated 2018):
Several values for one entry are separate records, joined by “and”; a condition that tells them apart may be missing. Equal values may be shown once. Entries after “also recorded” stand apart in the source; their conditions may differ.

Tests used:
human CaSR = biological target: T1, human CaSR (Homo sapiens, UniProt P41180); test: Intracellular Ca2+ (fura-2, F/F0) in HEK293 cells stably expressing human CaSR; type: cell-based; settings: 100 nM calcilytic, HEK-CaSR
T1 construct: expressed in transfected cells; control HEK-0 with empty vector
T1 sequence (P41180 20-1078): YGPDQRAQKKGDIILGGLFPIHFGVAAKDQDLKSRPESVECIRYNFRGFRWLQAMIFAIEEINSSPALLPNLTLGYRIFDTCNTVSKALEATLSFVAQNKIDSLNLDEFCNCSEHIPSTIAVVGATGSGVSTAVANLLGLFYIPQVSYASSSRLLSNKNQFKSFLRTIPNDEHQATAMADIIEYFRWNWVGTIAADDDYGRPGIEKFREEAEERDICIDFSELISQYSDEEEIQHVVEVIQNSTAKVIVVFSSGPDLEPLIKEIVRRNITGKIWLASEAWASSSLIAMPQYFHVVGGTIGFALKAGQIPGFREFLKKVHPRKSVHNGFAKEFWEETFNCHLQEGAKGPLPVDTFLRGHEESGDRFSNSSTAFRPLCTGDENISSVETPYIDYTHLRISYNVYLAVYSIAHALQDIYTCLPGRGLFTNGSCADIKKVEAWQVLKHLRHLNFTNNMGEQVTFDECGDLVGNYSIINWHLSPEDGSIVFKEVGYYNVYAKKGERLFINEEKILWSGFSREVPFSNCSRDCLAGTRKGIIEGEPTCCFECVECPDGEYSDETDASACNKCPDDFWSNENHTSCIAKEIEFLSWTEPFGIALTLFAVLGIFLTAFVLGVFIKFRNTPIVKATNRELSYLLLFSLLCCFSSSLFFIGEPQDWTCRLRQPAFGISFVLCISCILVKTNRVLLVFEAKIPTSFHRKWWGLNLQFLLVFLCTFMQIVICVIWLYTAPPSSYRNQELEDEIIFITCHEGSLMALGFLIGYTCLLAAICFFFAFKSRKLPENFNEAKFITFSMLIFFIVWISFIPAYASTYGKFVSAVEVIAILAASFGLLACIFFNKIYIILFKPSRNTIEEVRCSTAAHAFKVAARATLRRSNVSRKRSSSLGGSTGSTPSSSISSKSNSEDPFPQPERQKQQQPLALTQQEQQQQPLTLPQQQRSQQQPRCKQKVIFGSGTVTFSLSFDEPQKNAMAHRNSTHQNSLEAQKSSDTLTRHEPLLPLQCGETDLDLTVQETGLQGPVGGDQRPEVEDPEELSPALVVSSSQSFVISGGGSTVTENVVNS
Description: The structurally unrelated calcilytic NPS2143 also prevents spermine-induced CaSR activation (D). […] Note that ECP serum concentrations in asthmatic subjects are believed to be 30 μg/ml. n=121-487 cells, 3-9 experiments. Data are mean±SEM. Where differences are significant, they are shown above the bars. FIG. 6. Ca^2+o activates the CaSR, an effect which can be prevented by the calcilytic NPS89636. HEK293 cells stably expressing the human CaSR (HEK-CaSR) or transfected with empty vector (HEK-0) were loaded with 4 μM fura-2 AM and exposed to 5 mM Ca^2+o in the absence or presence of the calcilytic, NPS89636 (100 nM). Data are from >3 experiments and 121-386 cells. Significant differences are shown above the bars. […] The ability of a structurally unrelated calcilytic, NPS2143 (1-10 μM), was also tested on spermine-induced Ca^2+i mobilisation in HEK-CaSR. Ca^2+i release was measured as peak/baseline fluorescence (F/F0). Note that ECP serum concentrations in asthmatic subjects increase with disease severity and are believed to reach 30 μg/ml.

BalbC mice = test: Bronchial hyper-reactivity in ovalbumin-sensitised, ovalbumin-challenged mouse model of asthma; type: in vivo; settings: nebulised 3 μM; methacholine up to and including 30 mg/ml
Description: FIG. 13. The calcilytic, NPS89636, prevents ovalbumin-induced BHR in methacholine challenged mice. Mice were sensitised on days 0 and 5 by an i.p. injection of 100 microgram/mouse of ovalbumin (OVA) and 50 mg/mouse aluminium hydroxide in PBS. Fourteen days after the last injection, mice were challenged by inhalation of a 0.5% OVA aerosol in PBS twice on the same day, 4 h apart. Mice were treated with nebulised NPS89636 (3 micromolar) or vehicle (0.3% DMSO) one hour before and three hours after the last OVA exposure. Measurements of BHR following methacholine challenge were taken by plethysmography 24 hours before and after the last OVA inhalation challenge.
Penh was recorded by plethysmography during methacholine challenge, as above (Penh before treatment). 24 hours later, the mice were challenged with 0.5% nebulised OVA (in PBS w/v) in the absence or presence of nebulised NPS89636 (or 0.3% DMSO vehicle) by inhalation. The time-course of this challenge protocol consisted of: […]
Male BalbC mice (˜25 g) purchased from Harlan and allowed to acclimatise for 1 week prior to experiment. […] Thirteen days after the last injection, Penh was recorded by plethysmography during methacholine challenge, as described above (Penh before treatment). […]
Bronchoalveolar lavage was performed using three times 1 ml of PBS and the BALF was collected for the quantification of inflammatory cells. […]

[1] = Plasma ionised Ca2+ in BalbC mice after nebulised calcilytic treatment; type: in vivo, mouse
Description: Table 1. […] At the end of the experiment, bloods were collected via opening the carotid artery. Bloods were allowed to clot for 2-3 hours and spun down at 3000 g for 10 min at 4° C. Collected samples were analysed for measurements of Ca^2+o (performed by the Biochemistry department, University Hospital of Wales). […] Accordingly, the treatment is not detrimental in mammals.

[2] = Plasma ionised Ca2+ in guinea pigs after nebulised calcilytic treatment; type: in vivo, guinea pig
Excerpt: Table 2. […] Accordingly, the treatment is not detrimental in mammals.

[3] = 24 hours after nebulised calcilytic, single animals, hydrochloride

CCc1ccc(CC(C)(C)NCC(O)COc2cc(-c3ccc(C(=O)O)cc3)ccc2C#N)c(F)c1.Cl (stereo in doubt) [NPS89636, (S)-4′-cyano-3′-[3-[2-(4-ethyl-2-fluorophenyl)-1,1-dimethylethylamino]-2-hydroxy-propoxy]-biphenyl-4-carboxylic acid hydrochloride]
Effect of calcilytic on polycation-evoked Ca2+i release (F/F0) (human CaSR; 300 nM poly-L-arginine, 1 mM spermine or 10 μg/ml ECP, hydrochloride): completely eliminated; also recorded: significantly reduced
Effect of calcilytic on Ca2+i increase evoked by 5 mM Ca2+o (human CaSR): blocked
Effect on methacholine-induced BHR in OVA-sensitised, OVA-challenged mice (BalbC mice): completely abolished
Plasma ionised Ca++, Treatment (1 hour), individual animal ([1]; 1 hour after nebulised calcilytic, single animals, hydrochloride): 0.69 mM/L and 0.88 mM/L and 0.95 mM/L
Plasma ionised Ca++, Treatment (1 hour), Average ([1]; 1 hour, average of 3): 0.84 mM/L
Plasma ionised Ca++, Treatment (4 hours), individual animal ([1]; 4 hours after nebulised calcilytic, single animals, hydrochloride): 0.98 mM/L and 0.94 mM/L and 0.96 mM/L
Plasma ionised Ca++, Treatment (4 hours), Average ([1]; 4 hours, average of 3): 0.96 mM/L
Plasma ionised Ca++, Treatment (24 hours), individual animal [1, 3]: 1.09 mM/L and 1.1 mM/L and 0.93 mM/L
Plasma ionised Ca++, Treatment (24 hours), Average ([1]; 24 hours, average of 3): 1.04 mM/L
Plasma ionised Ca++, Treatment (24 hours), individual animal [2, 3]: 1.55 mM/L (2×) and 1.54 mM/L and 1.77 mM/L and 1.58 mM/L and 1.2 mM/L
Plasma ionised Ca++, Treatment (24 hours), Average ([2]; 24 hours, average of 6): 1.53 mM/L
